Several values for one entry are separate records, joined by “and”; a condition that tells them apart may be missing. Equal values may be shown once.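 Compound exposure: 48 hours, 5 concentrations, 96-well plates. Here, GI50 denotes the concentration required for 50% inhibition of growth. TGI marks complete inhibition of growth.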
What was measured:
Test in all cases: DTP human tumour cell line panel, 48 h
UACC-257 melanoma = test system: UACC-257 melanoma
NCI-H460 lung = test system: NCI-H460 lung
RPMI-8226 leukemia = test system: RPMI-8226 leukemia
HOP-62 NSCLC = test system: HOP-62 NSCLC
IGROV1 ovarian = test system: IGROV1 ovarian
SNB-19 CNS = test system: SNB-19 CNS
OVCAR-8 ovarian = test system: OVCAR-8 ovarian
SF-539 CNS = test system: SF-539 CNS
HL-60(TB) leukemia = test system: HL-60(TB) leukemia
UO-31 renal = test system: UO-31 renal

SMILES | GI50 (UACC-257 melanoma) [nM] | TGI (UACC-257 melanoma) | GI50 (NCI-H460 lung) [nM] | TGI (NCI-H460 lung) [nM] | GI50 (RPMI-8226 leukemia) [nM] | TGI (RPMI-8226 leukemia) [nM] | GI50 (HOP-62 NSCLC) [nM] | TGI (HOP-62 NSCLC) [nM] | GI50 (IGROV1 ovarian) [nM] | TGI (IGROV1 ovarian) | GI50 (SNB-19 CNS) [nM] | TGI (SNB-19 CNS) [nM] | GI50 (OVCAR-8 ovarian) [nM] | TGI (OVCAR-8 ovarian) | GI50 (SF-539 CNS) [nM] | TGI (SF-539 CNS) [nM] | GI50 (HL-60(TB) leukemia) [nM] | TGI (HL-60(TB) leukemia) [nM] | GI50 (UO-31 renal) [nM] | TGI (UO-31 renal) [nM]
Cc1ncc(C(=O)Nc2ccc(CN3CCN(C)CC3)c(C(F)(F)F)c2)cc1C#Cc1c(N)ncc2ccccc12 | 477 | 1060 nM | 447 | 952 | 396 | 1260 | 524 | 1400 | 208 | 823 nM | 591 | 1060 | 566 | 1280 nM | 470 | 914 | 247 | 817 | 460 | 1270
Nc1nccc2c1ncn2C1OC(CO)C(O)C1O (stereo unspecified) | > 100000 | > 100000 nM | 73800 | > 100000 | > 100000 | > 100000 | > 100000 | > 100000 | 44700 | > 100000 nM | > 100000 | > 100000 | 91500 | > 100000 nM | > 100000 | > 100000 | > 100000 | > 100000 | 28800 | > 100000
Cc1ccc(Nc2cc(C)nc(NCCCNc3ccnc4cc(Cl)ccc34)n2)cc1 | 1740 | 3220 nM | 1570 | 3230 | 1500 | 3950 | 1380 | 2780 | 1820 | 3980 nM | 1750 | 3840 | 1670 | 3250 nM | 1590 | 3050 | 1840 | 4810 | 1430 | 2870
COc1ccc2c(CCNC(=O)/C=C/c3ccccc3)c(C(C)=O)[nH]c2c1[N+](=O)[O-] |  | > 100000 nM |  | > 100000 |  | > 100000 |  | 76200 |  | 56200 nM |  | > 100000 |  | > 100000 nM |  | 61000 |  | > 100000 |  | > 100000
C[C@@H](COCCC(=O)N1CCN(c2ncc(C(F)(F)F)cn2)CC1)Nc1cn[nH]c(=O)c1C(F)(F)F | > 94400 | > 100000 nM | 18600 | > 100000 | 31800 | > 100000 | 23600 | > 100000 | 42200 | > 100000 nM | 34200 | > 100000 | 32700 | > 100000 nM | 16400 | > 100000 | 16100 | > 100000 | 32100 | > 100000
CC(C)C[C@H](NC(=O)[C@H](Cc1cccc2ccccc12)NS(=O)(=O)c1cccc2cccnc12)B(O)O |  | 29 nM and 35.7 nM | 61.8 | 1350 | 0.296 | 0.934 | 51.1 | 563 | 33.1 | 298 nM and 301 nM |  | > 35300 | 117 | 409 nM and 2900 nM | 0.193 |  | 0.204 |  | 353 | 1060

Source: PubChem BioAssay (NCI)
